Measured values taken from patent US12492173B2, “Herbicidal substituted N-tetrazolyl aryl carboxamides” (Bayer Aktiengesellschaft, priority 2019, dated 2025).

Experiments:
Type in all cases: in vivo
Veronica persica = test: Post-emergence herbicidal action, VERPE; parameters: key: % herbicidal action vs untreated; 100 = plants died, 0 = like control
Outline: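 Percent herbicidal effect was rated visually about 3 weeks after treatment, relative to untreated plants (0% = like control, 100% = dead). Compounds, formulated as WP or EC, went on as aqueous spray (600–800 l/ha, 0.2% wetting agent) to one-leaf-stage plants 2–3 weeks post-sowing in sandy loam.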

Abutilon theophrasti = test: Pre-emergence herbicidal action, ABUTH; parameters: key to Herbicidal action against ABUTH: % activity: 100 = plants have died, 0 = like control plants; conditions: for herbicidal action ABUTH / herbicidal activity ABUTH: dosage 320 g/ha; for herbicidal activity ABUTH: scored visually after 3 weeks vs untreated controls (100% = plants have died); for Herbicidal action against ABUTH: comparative experiment
Outline: (§1)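 Percent damage, assessed visually after 3 weeks and referenced to untreated controls, reflects a pre-emergence treatment. Spray liquid equated to 600 to 800 l/ha with 0.2% wetting agent, applied to the covering soil over seeds in sandy loam.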

Cyperus esculentus = test: Post-emergence herbicidal action, CYPES; parameters: key: % herbicidal action vs untreated; 100 = plants died, 0 = like control; conditions: for Herbicidal action against CYPES: comparative experiment
Protocol: [table] 2. Post-Emergence Herbicidal Action Against Harmful Plants Seeds of monocotyledonous and dicotyledonous weed and crop plants are laid out in sandy loam soil in wood-fiber pots, covered with soil and cultivated in a greenhouse under good growth conditions. 2 to 3 weeks after sowing, the test plants are treated at the one-leaf stage. The compounds of the invention, formulated in the form of wettable powders (WP) or as emulsion concentrates (EC), are then sprayed onto the green parts of the plants in the form of an aqueous suspension or emulsion at a water application rate equating to 600 to 800 l/ha, with addition of 0.2% wetting agent. After the test plants have been left to stand in the greenhouse under optimal growth conditions for about 3 weeks, the action of the preparations is assessed visually in comparison to untreated controls (herbicidal action in percent (%): 100% activity=the plants have died, 0% activity=like control plants). […] The tables below illustrate, in an exemplary manner, the post-emergence herbicidal action of the compounds according to the invention, the herbicidal activity being stated in percent. In the experiments that follow, herbicidal action of numerous inventive compounds and the known compounds that are structurally closest from D1 (WO 2012/028579 A1) and D2 (WO 2018/202535 A1) were compared under the above-specified conditions by the pre-emergence and post-emergence method. The example numbers given in the tables relate to the compounds disclosed in the respective documents. In addition to the compounds disclosed in D1 and D2, the following compounds V-1 to V-14 that are encompassed by D1 or D2 but are not compounds specified therein were used in the comparative experiments: • V-1: 2-(methylsulfanyl)-3-(methylsulfinyl)-N-(1-methyl-1H-tetrazol-5-yl)-4-(trifluoromethyl)benzamide • V-2: 2-(methylsulfanyl)-3-(methylsulfonyl)-N-(1-methyl-1H-tetrazol-5-yl)-4-(trifluoromethyl)benzamide • V-3: 2,3-bis(ethylsulfanyl)-N-(1-methyl-1H-tetrazol-5-yl)-4-(trifluoromethyl)benzamide • V-4: 2-chloro-3-(ethylsulfanyl)-N-(1-methyl-1H-tetrazol-5-yl)-4-(trifluoromethyl)benzamide • V-5: 2-chloro-4-iodo-3-(methylsulfanyl)-N-(1-methyl-1H-tetrazol-5-yl)benzamide • V-6: 2-chloro-4-iodo-3-(methylsulfinyl)-N-(1-methyl-1H-tetrazol-5-yl)benzamide • V-7: 2-chloro-4-iodo-3-(methylsulfonyl)-N-(1-methyl-1H-tetrazol-5-yl)benzamide • V-8: 2-bromo-3-(methylsulfanyl)-N-(1-methyl-1H-tetrazol-5-yl)-4-(trifluoromethyl)benzamide • V-9: 2-bromo-3-(methylsulfinyl)-N-(1-methyl-1H-tetrazol-5-yl)-4-(trifluoromethyl)benzamide • V-10: 2-bromo-3-(methylsulfonyl)-N-(1-methyl-1H-tetrazol-5-yl)-4-(trifluoromethyl)benzamide • V-11: 2-bromo-3-(ethylsulfanyl)-N-(1-methyl-1H-tetrazol-5-yl)-4-(trifluoromethyl)benzamide • V-12: 2-bromo-3-(ethylsulfinyl)-N-(1-methyl-1H-tetrazol-5-yl)-4-(trifluoromethyl)benzamide • V-13: 2-bromo-3-(ethylsulfonyl)-N-(1-methyl-1-1H-tetrazol-5-yl)-4-(trifluoromethyl)benzamide • V-14: 2-cyclopropyl-3-(ethylsulfanyl)-N-(1-methyl-1H-tetrazol-5-yl)-4-(trifluoromethyl)benzamide Herbicidal Pre-Emergence Action: […]

Stellaria media = test: Pre-emergence herbicidal action, STEME; parameters: key to Herbicidal action against STEME: % activity: 100 = plants have died, 0 = like control plants; conditions: for herbicidal action STEME / herbicidal activity STEME: dosage 320 g/ha; for herbicidal activity STEME: scored visually after 3 weeks vs untreated controls (100% = plants have died)
Outline: as §1

| SMILES | herbicidal action VERPE (Veronica persica; Dosage 80 g/ha) | herbicidal action ABUTH (Abutilon theophrasti) [%] | herbicidal action STEME (Stellaria media) [%] | other results |
| --- | --- | --- | --- | --- |
| Cc1c(C(=O)Nc2nnnn2C)ccc(C(F)F)c1C[S+](C)[O-] (stereo not shown) [Example 1-108] | 100 | 100 | – | – |
| CCSCc1c(C(F)(F)F)ccc(C(=O)Nc2nnnn2CC)c1C [Example 2-86] | – | 100 | – | herbicidal action VERPE (Veronica persica; post-emergence, dosage 80 g/ha): 90%; herbicidal action CYPES (Cyperus esculentus; post-emergence, dosage 80 g/ha): 80% |
| COc1c(C(=O)Nc2nnnn2C)ccc(Cl)c1CSC [Example 1-570] | – | 90 | 80 | Herbicidal action against VERPE (Veronica persica; post-emergence, dosage 80 g/ha): 90; Herbicidal action against CYPES (Cyperus esculentus; post-emergence, 5 g of a.i./ha): 60 |
| CSCc1c(C)ccc(C(=O)Nc2nnnn2C)c1Cl [Example 1-287] | 100 | 100 | 90 | – |
| CCn1nnnc1NC(=O)c1ccc(C(F)(F)F)c(CS(=O)(=O)CC)c1Cl [Example 2-301] | 100 | 100 | 80 | – |
| CCCn1nnnc1NC(=O)c1ccc(S(C)(=O)=O)c(CSC)c1C [Example 3-37] | 100 | 80 | 90 | – |
| CCn1nnnc1NC(=O)c1ccc(S(C)(=O)=O)c(CS(C)(=O)=O)c1Cl [Example 2-280] | – | 100 | 80 | Herbicidal action against VERPE (Veronica persica; post-emergence, dosage 80 g/ha): 80 |
| CCCn1nnnc1NC(=O)c1ccc(C(F)(F)F)c(CS(C)(=O)=O)c1Br [Example 3-382] | 90 | 100 | 100 | herbicidal action CYPES (Cyperus esculentus; Dosage 80 g/ha): 80 |
| CCn1nnnc1NC(=O)c1ccc(C(F)F)c(C[S+](C)[O-])c1SC (stereo not shown) [Example 2-171] | 100 | – | – | herbicidal activity STEME (Stellaria media): 100%; herbicidal activity ABUTH (Abutilon theophrasti): 100% |
| CCCn1nnnc1NC(=O)c1ccc(C(F)(F)F)c(CSCC(F)(F)F)c1Cl [Example 3-311] | 80 | 100 | 90 | – |
| CCn1nnnc1NC(=O)c1ccc(Cl)c(CSC)c1Cl [Example 2-559] | 100 | 100 | 90 | – |
| CCS(=O)(=O)Cc1c(C(F)(F)F)ccc(C(=O)Nc2nnnn2C)c1C [Example 1-88] | 100 | 100 | – | – |
| CCCn1nnnc1NC(=O)c1ccc(S(C)(=O)=O)c(CS(C)(=O)=O)c1C [Example 3-39] | 100 | 100 | – | – |
| CCCn1nnnc1NC(=O)c1ccc(C(F)(F)F)c(CSC)c1SC [Example 3-161] | 100 | 100 | 100 | – |
| CCCn1nnnc1NC(=O)c1ccc(C(F)(F)F)c(CSCC)c1C [Example 3-86] | 80 | 100 | – | – |
| CCn1nnnc1NC(=O)c1ccc(C(F)(F)F)c(CS(=O)(=O)CC)c1C [Example 2-88] | 100 | 100 | – | – |
| CCS(=O)(=O)c1c(C(F)(F)F)ccc(C(=O)Nc2nnnn2C)c1Br [Example V-13, 2-bromo-3-(ethylsulfonyl)-N-(1-methyl-1-1H-tetrazol-5-yl)-4-(trifluoromethyl)benzamide, reference compound] | – | – | – | Herbicidal action against VERPE (Veronica persica; comparative experiment, post-emergence, 20 g of a.i./ha): 0; Herbicidal action against CYPES (Cyperus esculentus; post-emergence, 20 g of a.i./ha): 0; Herbicidal action against ABUTH (Abutilon theophrasti; 80 g of a.i./ha): 0 |
| CCCn1nnnc1NC(=O)c1ccc(C(F)(F)F)c(C[S+](C)[O-])c1OC (stereo not shown) [Example 3-135] | – | 100 | 100 | – |
| CCCn1nnnc1NC(=O)c1ccc(C(F)F)c(CSC)c1SC [Example 3-170] | 90 | – | – | herbicidal activity STEME (Stellaria media): 100%; herbicidal activity ABUTH (Abutilon theophrasti): 100% |
| CCn1nnnc1NC(=O)c1ccc(C(F)F)c(C[S+](C)[O-])c1C (stereo not shown) [Example 2-108] | 100 | 100 | – | – |
| Cc1ccc(C(=O)Nc2nnnn2C)c(Cl)c1C[S+](C)[O-] (racemic) [Example 1-288] | 100 | 90 | 90 | herbicidal action CYPES (Cyperus esculentus; Dosage 80 g/ha): 90 |
| CSCc1c(C(F)F)ccc(C(=O)Nc2nnnn2C)c1Cl [Example 1-320] | 100 | – | – | Herbicidal action against STEME (Stellaria media; comparative experiment, 20 g of a.i./ha): 90; herbicidal activity STEME (Stellaria media): 90%; Herbicidal action against VERPE (Veronica persica; comparative experiment, post-emergence, 5 g of a.i./ha): 100; herbicidal action CYPES (Cyperus esculentus; Dosage 80 g/ha): 80; Herbicidal action against ABUTH (Abutilon theophrasti; 20 g of a.i./ha): 90; herbicidal activity ABUTH (Abutilon theophrasti): 100% |
| COc1c(C(=O)Nc2nnnn2C)ccc(C(F)(F)F)c1C[S+](C)[O-] (stereo not shown) [Example 1-135] | 100 | 100 | 80 | – |
| CSCc1c(Cl)ccc(C(=O)Nc2nnnn2C)c1Cl [Example 1-559] | – | 100 | 90 | herbicidal action VERPE (Veronica persica; post-emergence, dosage 80 g/ha): 100%; herbicidal action CYPES (Cyperus esculentus; post-emergence, dosage 80 g/ha): 90% |
| CCCn1nnnc1NC(=O)c1ccc(C(F)(F)F)c(CS(=O)(=O)CC)c1Cl [Example 3-301] | 80 | 100 | 90 | – |
